Laboratory results published in BigSolDB 2.1.

O=[N+]([O-])c1cccc2c([N+](=O)[O-])cccc12
solubility (mole fraction)
Conditions	in acetone	in acetonitrile	in chloroform	in ethanol	in ethyl acetate	in ethylbenzene	in n-propanol	in toluene
273.15 K	0.000703	0.000236	0.000629	1.99e-05	0.000648	0.000522	2.17e-05	0.000683
275.65 K	0.000762	0.000265	0.000731	2.25e-05	0.000699	0.000578	2.53e-05	0.000761
278.15 K	0.000844	0.000296	0.000881	2.62e-05	0.000754	0.000638	2.96e-05	0.000858
280.65 K	0.000912	0.000333	0.00102	3.1e-05	0.000835	0.000714	3.41e-05	0.000958
283.15 K	0.000991	0.000372	0.00118	3.66e-05	0.000923	0.000785	3.92e-05	0.00106
285.65 K	0.00108	0.000415	0.00135	4.16e-05	0.000998	0.000863	4.45e-05	0.00117
288.15 K	0.00117	0.000468	0.00153	4.81e-05	0.00113	0.000941	5.16e-05	0.00129
290.65 K	0.00126	0.00053	0.0017	5.43e-05	0.00123	0.00104	5.77e-05	0.00141
293.15 K	0.00138	0.000585	0.00192	6.15e-05	0.00136	0.00116	6.54e-05	0.00153
295.65 K	0.00149	0.000659	0.00213	6.94e-05	0.00148	0.00129	7.43e-05	0.0017
298.15 K	0.00164	0.000741	0.00238	7.82e-05	0.00164	0.0014	8.45e-05	0.00186
300.65 K	0.00174	0.000831	0.00269	8.74e-05	0.0018	0.00152	9.67e-05	0.00205
303.15 K	0.0019	0.000914	0.00295	9.75e-05	0.00198	0.00166	0.00011	0.00223
305.65 K	0.00201	0.000997	0.00334	0.000109	0.00218	0.00182	0.000126	0.00242
308.15 K	0.00217	0.00111	0.00369	0.000122	0.00238	0.00201	0.000142	0.00264
310.65 K	0.00229	0.00121	0.00408	0.000139	0.00258	0.00219	0.000163	0.00287
313.15 K	0.00242	0.00133	0.00451	0.000157	0.00284	0.00248	0.000182	0.00309
